From US20060105458A1, “Caged tetracycline (derivatives), their generation, and their use for photoactivated gene expression” (priority 2002, published 2006)

Tests used:
[1] = test system: tet-dependent chloramphenicol transferase (CAT) construct in organotypic hippocampal Müller cultures; test: Photoactivation of organotypic hippocampal Müller cultures (tet-dependent CAT transgene, immunohistochemistry); assay type: cell-based, rat or mouse
Procedure: FIG. 3 depicts a second assay to test photoactivation in tissues, exemplified by the use of organotypic hippocampal Müller cultures. […] After administration of caged doxycycline to the cells by adding it to the medium and subsequent photoactivation, CAT expression was assessed immuno-histochemically. […] CAT expression in the irradiated slice is mainly seen in cells at the border of the slice where cells become infected with viruses much more rapidly than in the center.
FIG. 4 illustrates the result of a further experiment performed by the present inventors. That is, in order to test if photoactivated gene expression can be used to induce gene expression in a locally restricted manner, adenovirus-infected Müller cultures were irradiated only in one half of the slice. […] Again, fluorescence is mostly seen at the slice boundary where the virus most readily infects cells of the culture. Thus, photoactivated gene expression provides the researcher with excellent spatial control over gene expression.
Mouse or rat hippocampal Müller cultures were prepared according to standard procedures from P5-7 animals. […] Following overnight incubation, 0.15 μM caged doxycycline was added to the medium, incubated for 1 h, and slices or selected regions of slices were irradiated for 10 sec with an upright fluorescence microscope using an appropriate filter (XF3000, OMEGA OPTICAL). Following overnight incubation, CAT fluorescence was detected immunohistochemically with a polyclonal anti-CAT antibody (Sigma).

[2] = test system: tet-dependent GFP construct in organotypic hippocampal Müller cultures; test: Photoactivation of organotypic hippocampal Müller cultures (tet-dependent GFP transgene); assay type: cell-based, rat or mouse; details: 1.5 μM, optical fiber 200 μm, irradiated three times for 2 min with an interval of 1 hour
Procedure: FIG. 5 depicts a modified assay to test photoactivation in tissues, exemplified again by the use of organotypic hippocampal Müller cultures. […] To determine the maximal level of GFP expression that is possible with this approach, unmodified doxycycline was added in saturating concentrations (2 μM). […] The bright-field image on the right allows normal visualization of the culture (FIG. 5b).
FIG. 6: In a new set of experiments, photoactivation was done by using thin optical fibers (200 μm) for irradiation with the UV light coming from a Xenon arc lamp. The UV beam could be positioned with the help of a recording electrode that was aligned to be in the center of the circular irradiation area. About half of the culture was irradiated with this arrangement. The position of the electrode is indicated by the red dot. The culture was incubated with 1.5 μM caged doxycycline one hour prior to irradiation. Cultures were irradiated three times for 2 min with an interval of 1 hour. […] FIG. 6b indicates the electrode position relative to the whole culture.

[3] = final concentration 0.1 to 1 μM, within 24 h at 37° C.
[4] = test system: CHO cells expressing the fusion protein and containing a tetracycline-dependent EGFP construct; test: Photoactivation of CHO cells (EGFP reporter); assay type: cell-based
Procedure: CHO cells mentioned above (that is, cells expressing the fusion protein^3 and containing a tetracycline-dependent EGFP) were used as a simple cell culture assay were propagated and plated according to standard cell culture procedures in Ham's F-12 medium. Cells were plated in 35 mm dishes with a glass bottom from Mattek. Two days after plating, cells were overlaid with 1% low-gelling agarose in Ham's F-12 containing 1 mM Na-butyrate and 0.3 μM caged doxycycline. Subsequently, a subset of cells was locally irradiated with a hand-held 6W UV lamp (365 nm) for 30 sec. Following overnight incubation, EGFP expression was assessed with a fluorescence microscope.

CAT expression, unirradiated control slice ([1]; no irradiation)	CAT expression, irradiated slice ([1]; single pulse of UV irradiation, 0.15 μM caged doxycycline)	Spontaneous decomposition under incubation conditions [3]	Compound	GFP expression after local UV irradiation [2]	EGFP fluorescence, irradiated cells ([4]; CHO cells incubated with caged compound (0.3 μM), UV 365 nm 30 sec, overnight incubation)	EGFP fluorescence, cells not irradiated ([4]; cells in the same dish that were not irradiated)	Local expression of genes/transgenes on irradiation ([1]; irradiated CHO cells or organotypic hippocampal Müller cultures)
did not display any CAT expression	CAT expression in a few cells	about 10%	1-(4,5-dimethoxy-2-nitrophenyl)-ethyl-caged doxycycline [DMNPE-caged doxycycline]	GFP positive cells that are within the circular irradiation area	–	–	–
–	–	–	COc1cc(C(C)O[C@]23C(=O)C(C(N)=O)=C(O)[C@H](N(C)C)[C@H]2[C@H](O)[C@@H]2C(=C3O)C(=O)c3c(O)cccc3[C@H]2C)c([N+](=O)[O-])cc1OC (stereo partly shown) [DMNPE-caged doxycycline, 1-(4,5-dimethoxy-2-nitrophenyl)-ethyl-caged doxycycline]	–	widespread EGFP fluorescence	did not fluoresce	specific, time-dependent, and local expression of genes/transgenes
